Results: US10377998B2, “CRISPR-CAS systems and methods for altering expression of gene products, structural information and inducible modular CAS enzymes” (The Broad Institute, Inc., priority 2013, dated 2019)

Assays:
[1] = test system: Factor VII; settings: LNP siRNA systems containing these lipids, hepatocytes in vivo; cited from earlier work
[2] = Double nicking indel formation with sgRNA pairs; format: cell-based; settings: substitution of Cas9n in double nicking, eukaryotic system
Source text: Aspects of the invention relate to the expression of the gene product being decreased or a template polynucleotide being further introduced into the DNA molecule encoding the gene product or an intervening sequence being excised precisely by allowing the two 5′ overhangs to reanneal and ligate or the activity or function of the gene product being altered or the expression of the gene product being increased. In an embodiment of the invention, the gene product is a protein. Only sgRNA pairs creating 5′ overhangs with less than 8 bp overlap between the guide sequences (offset greater than −8 bp) were able to mediate detectable indel formation. […] Nonetheless, a pair of sgRNAs that will generate a 5′ overhang with Cas9n should in principle generate the corresponding 3′ overhang instead, and double nicking. […] Accordingly, in some embodiments, a recombination template is also provided. A recombination template may be a component of another vector as described herein, contained in a separate vector, or provided as a separate polynucleotide. In some embodiments, a recombination template is designed to serve as a template in homologous recombination, such as within or near a target sequence nicked or cleaved by a CRISPR enzyme as a part of a CRISPR complex. […]

## 1,2-dilinoleyloxy-keto-N,N-dimethyl-3-aminopropane [DLinKDMA]
[1]
  gene silencing potency series: DLinKC2-DMA>DLinKDMA>DLinDMA>>DLinDAP

## CCCCC/C=C\C/C=C\CCCCCCCC(=O)OCC(CN(C)C)OC(=O)CCCCCCC/C=C\C/C=C\CCCCC (centres unmarked) [DLinDAP, 1,2-dilineoyl-3-dimethylammonium-propane]
[1]
  gene silencing potency series: DLinKC2-DMA>DLinKDMA>DLinDMA>>DLinDAP

## CCCCC/C=C\C/C=C\CCCCCCCCOCC(CN(C)C)OCCCCCCCC/C=C\C/C=C\CCCCC (centres unmarked) [DLinDMA, 1,2-dilinoleyloxy-3-N,N-dimethylaminopropane]
[1]
  gene silencing potency series: DLinKC2-DMA>DLinKDMA>DLinDMA>>DLinDAP

## CCCCC/C=C\C/C=C\CCCCCCCCC1(CCCCCCCC/C=C\C/C=C\CCCCC)OCC(CCN(C)C)O1 (centres unmarked) [DLinKC2-DMA, 1,2-dilinoleyl-4-(2-dimethylaminoethyl)-[1,3]-dioxolane]
[1]
  gene silencing potency series: DLinKC2-DMA>DLinKDMA>DLinDMA>>DLinDAP

## Cas9H840A: Cas9 with H840A mutation
[2]
  indel formation with sgRNA pair: no indel formation is observed
